{
  "source": "patent US20060025430A1",
  "about": "“Novel irreversible inhibitors of epidermal growth factor receptor tyrosine kinase and uses thereof for therapy and diagnosis” (priority 2003, published 2006)",
  "key": {"[1]": {"experiment": "Challenge reaction with reduced glutathione (HPLC conversion to conjugates)", "format": "physicochemical", "protocol": "Standard solutions were prepared by dissolving compound 5, Compound 6 and {4-[(3,4-dichloro-6-fluorophenyl)amino]quinazol ine-6-yl}acrylamide (0.0146 mmol) in 1.75 ml of THF: MeOH (1:2) and glutathione (18 mg, 0.0586 mmol) in 0.5 ml of water. A 300 μL aliquot of the quinazoline standard solution (2.5 μmol) was diluted with 689 μL of THF:MeOH:H2O (1:2:1), after which 11 μL (1.25 μmol) of glutathione solution and 5.22 μL (30 μmol) of N,N′-diisopropylethylamine were added. Conversions of the quinazolines and formation of conjugates at different time points were measured by HPLC using RP (3.9×300 mm) column (mobile phase of acetonirile and acetate buffer 0.1 M (2:3) at a flow rate of 1 ml/min was used herein). The glutathione conjugates were further detected by MS.\nAs discussed hereinabove, EGFR blockade by irreversible inhibitors is due to the nucleophilic attack of the sulfhydryl group of Cys-773 at the receptor's ATP binding pocket on the reactive chemical group of the EGFR targeted inhibitor. In order to evaluate the chemical reactivity of the novel irreversibly EGFR inhibitors decribed herein, the degree of reactivity of the inhibitors towards the sulfhydryl group of reduced glutathione (GSH) as a nucleophile was tested. Thus, Compound 5, Compound 6 and {4-[(3,4-dichloro-6-fluorophenyl)amino]quinazoline-6-yl}acrylamide were dissolved in THF: MeOH: H2O (1:2:1), and were reacted at room temperature with half an equivalent of reduced glutathione in the presence of 12 equivalents of N,N-diisopropylethylamine. Identical aliquots of the reaction mixtures were taken at various time points and injected into reversed-phase HPLC in order to determine the conversion-rate of the various compounds into glutathione-conjugates. The characteristics of the products were determined using MS.\nA study of the reaction rate as a function of the temperature was also performed. Thus, the reaction ws performed at various temperatures ranging from 0° C. and 60° C. The following activation parameters were generated: For {4-[(3,4-dichloro-6-fluorophenyl)amino]quinazoline-6-yl}acrylamide: Ea=5.24 kCalmol^−1, ΔH^#25° C.=4.64 kCalmol^−1 and ΔS^#25° C.=−61.24 Calmol^−1K^−1. For compound 5: Ea=11.4 kCalmol^−1, ΔH^#25° C.=10.80 kCalmol^−1 and ΔS^#25° C.=−41.29 Calmol^−1K^−1.\nThe reaction rate was calculated using the following rate equation: [formula] kobs=Ae^−Ea/RT"}, "EGFR": {"target": "T1, EGFR (Homo sapiens, UniProt P00533)", "T1 construct": "expressed in transfected cells; host or cells: NIH3T3 (DHER14 cells)", "T1 sequence (P00533 25-1210)": "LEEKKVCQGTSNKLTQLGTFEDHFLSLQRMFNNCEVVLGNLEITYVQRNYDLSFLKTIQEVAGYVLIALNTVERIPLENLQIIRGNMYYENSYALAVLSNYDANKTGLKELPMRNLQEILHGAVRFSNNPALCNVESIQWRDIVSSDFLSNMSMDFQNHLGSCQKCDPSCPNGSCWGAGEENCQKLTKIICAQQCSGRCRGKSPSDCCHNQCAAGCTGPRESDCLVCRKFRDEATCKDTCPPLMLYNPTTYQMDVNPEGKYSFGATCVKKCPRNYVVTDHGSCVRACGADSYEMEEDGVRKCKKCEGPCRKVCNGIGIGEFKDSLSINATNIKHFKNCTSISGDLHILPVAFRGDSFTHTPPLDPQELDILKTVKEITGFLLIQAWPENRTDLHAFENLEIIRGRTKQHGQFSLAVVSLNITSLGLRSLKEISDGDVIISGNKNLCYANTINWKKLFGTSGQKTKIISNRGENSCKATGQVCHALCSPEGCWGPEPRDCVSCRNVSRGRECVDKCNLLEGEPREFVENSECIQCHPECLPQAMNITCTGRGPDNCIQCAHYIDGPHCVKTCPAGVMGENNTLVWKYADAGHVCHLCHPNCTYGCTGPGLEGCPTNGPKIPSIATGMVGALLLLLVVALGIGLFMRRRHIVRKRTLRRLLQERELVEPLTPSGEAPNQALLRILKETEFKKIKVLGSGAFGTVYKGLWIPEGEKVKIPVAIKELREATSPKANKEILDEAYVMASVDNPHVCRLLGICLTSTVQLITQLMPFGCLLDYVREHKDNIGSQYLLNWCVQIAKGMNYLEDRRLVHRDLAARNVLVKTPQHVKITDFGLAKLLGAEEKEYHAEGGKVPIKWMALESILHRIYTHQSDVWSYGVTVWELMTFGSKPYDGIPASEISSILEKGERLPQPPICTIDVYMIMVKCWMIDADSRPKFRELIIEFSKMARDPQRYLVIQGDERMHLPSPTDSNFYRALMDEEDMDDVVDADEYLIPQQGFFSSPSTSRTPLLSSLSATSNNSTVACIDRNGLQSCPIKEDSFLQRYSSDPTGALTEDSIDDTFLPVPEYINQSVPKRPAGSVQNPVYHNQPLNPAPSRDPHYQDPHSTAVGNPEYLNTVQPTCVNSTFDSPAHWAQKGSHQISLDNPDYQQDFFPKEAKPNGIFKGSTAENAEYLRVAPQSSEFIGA", "experiment": "Selective-inhibition assay in DHER14 cells (receptor phosphotyrosine, Western blot)", "format": "cell-based", "conditions": "DHER14 cells expressing EGFR, 1 hour incubation, EGF stimulation", "protocol": "NIH3T3 cells transformed with either the EGFR (DHER14 cells), with the HER1-HER2 chimera (CSH12 cells) or with the PDGFR (NIH/PDGFR cells), decribed by Lee et al.; 1989, Honegger et al., 1988; and Shawver et al. 1997, and A431 human epidermoid vulval carcinoma cells were grown in Dulbecco's modified Eagle's medium (DMEM) (Biological industries, Kibbuts Beit Haemek, Israel) supplemented with 10% fetal calf serum and antibiotics (penicillin […], streptomycin 100 mg/liter) at 37° C. in 5% CO2.\nSelective-inhibition assay: CSH12, DHER14 and […] cells, expressing either the HER1-HER2 chimera, EGFR or PDGFR, respectively, were used for the determination of inhibitory selectivity. Cells (7.5×10^4) were grown in 6-well plates (35 mm diameter, Nalge Nunc) for 24 hours and then incubated in 0.25% FCS-containing medium for an additional 24 hours to about 90% confluence. Duplicate sets of cells were treated with the tested compounds at varying concentrations for 1 hour. The final concentration of the vehicle in the medium was 0.05% DMSO, 0.1% EtOH. After removal of the inhibitor from the medium, PBS wash (×2) and addition of 0.25% serum-containing medium to the wells, the cells were stimulated with either 20 ng/mL human EGF for 5 minutes (CSH12 and DHER14 cells) or 50 ng/ml human PDGFββ for 10 minutes ([…] cells) at 37° C. […]"}},
  "data": [
    {"smiles": "O=C(CCl)Nc1ccc2ncnc(Nc3cc(Cl)c(Cl)cc3F)c2c1", "note": "[Compound 5, N-{4-[(4,5-Dichloro-2-fluoro-phenyl)amino]-quinazolin-6-yl}-2-chloroacetamide]", "values": [
      {"measurement": "ΔH^# 25° C. of reaction with reduced glutathione", "setting": "[1]; 25° C.", "value": 10.80, "unit": "kCalmol^−1"},
      {"measurement": "ΔS^# 25° C. of reaction with reduced glutathione", "setting": "[1]; 25° C.", "value": "−41.29", "unit": "Calmol^−1K^−1"},
      {"measurement": "activation energy Ea of reaction with reduced glutathione", "setting": "[1]; temperatures from 0° C. to 60° C.", "value": 11.4, "unit": "kCalmol^−1"},
      {"measurement": "melting point", "value": "> 300", "unit": "°C"},
      {"measurement": "IC50", "setting": "EGFR", "value": "5 to 15", "unit": "nM"}
    ]}
  ]
}
